Experimental findings from PubChem BioAssay (NCI) are described below.

The structures appear in SMILES notation.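 Cultured in 96-well plates, cells were exposed to test compound for 48 hours across five concentrations. GI50: concentration for 50% inhibition of growth. TGI marks complete inhibition of growth.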 Where only a bound is given, the exact number is not on record here.

What all share (assay): inhibition of tumour cell growth, NCI panel, 48 h
The subject of assay [1] is PC-3 prostate.
In assay [2] the test system is NCI/ADR-RES ovarian.
Assay [3] has as its system CCRF-CEM leukemia.
Assay [4] has as its system SNB-19 CNS.
Assay [5] deals with SNB-75 CNS.
Assay [6] concerns RPMI-8226 leukemia.
The test system of assay [7] is SK-OV-3 ovarian.
For assay [8], the system named is 786-0 renal.
The subject of assay [9] is NCI-H522 lung.
The subject of assay [10] is UACC-62 melanoma.

For `COC(=O)/C=C/c1cc(OC(C)=O)c2c(c1)[C@@H](C(=O)OC)[C@H](c1ccc(OC(C)=O)c(OC(C)=O)c1)O2`, the GI50 in [1] is 0.316 µM; in assay [2], 0.0423 µM; in assay [3], 0.039 µM; in assay [4], 0.431 µM; in [5], 0.0191 µM; in assay [6] it was 0.049 µM. Besides, the GI50 in [7] was 0.417 µM; in assay [8], 0.0958 µM; in assay [9], 0.0348 µM; in assay [10], 0.359 µM. The TGI was 54.7 µM in assay [1]; 1.93 µM in assay [2]; 34.4 µM in assay [3]; over 100 µM in [4]; 1.48 µM in [5]; 41.9 µM in assay [7]. The TGI in [8] is over 100 µM; in [9], 2.13 µM; in assay [10] it was 26 µM.
Regarding `COc1cc2c(cc1OC)-c1cc(OC)c(OC)cc1C(CN(C)C)C2` (centres undefined), the GI50 in assay [1] was over 10 µM; in assay [2] it was over 10 µM; in [3] it was over 10 µM; in [4], over 10 µM; in [5] it was 4.56 µM; in assay [6] it was over 10 µM. In addition, the GI50 in [7], in assay [8], in assay [9] and in [10] was over 10 µM in each case. In addition, the TGI in assay [1], in assay [2], in [3], in assay [4], in assay [5] and in assay [6] was over 10 µM throughout. Moreover, the TGI in [7], in assay [8], in assay [9] and in [10] was over 10 µM each time.
As for `COCCn1cc(-c2nc(-c3cc4cccnc4[nH]3)cs2)c2cc(OC)ccc21`, the GI50 in assay [1] was 3.13 µM; in assay [2], 2.95 µM; in assay [3] it was 4.54 µM; in [4], 6.48 µM; in assay [5], 1.22 µM; in assay [6], 3.94 µM. Besides, the GI50 in [7] was 3.04 µM; in [8] it was 3.04 µM; in [9], 2.99 µM; in assay [10], 4.22 µM. In addition, the TGI in [1] is 13.3 µM; in assay [2], 23.8 µM; in [3], over 100 µM; in assay [4] it was over 100 µM; in [5], 5.83 µM; in assay [6], over 36.2 µM. The TGI in [7] turned out to be 11.6 µM; in assay [8] it was 20.9 µM; in [9], 21 µM; in assay [10], 31.3 µM.
For `COc1cc2c(cc1OC)C(Cl)C(c1ccc(F)cc1)=C2Cl` (centres undefined), the TGI in assay [1] is 24.9 µM; in assay [2], 34.5 µM; in [3], 29.1 µM; in assay [4], 37.5 µM; in assay [5] it was 29.1 µM; in assay [6] it was 39.2 µM. For the same compound, the TGI in assay [7] worked out at 41.9 µM; in assay [8], 24.8 µM; in [9] it was 21.8 µM; in [10], 29.8 µM.
As to `C/C=C/[C@@H]1O[C@@H]2COC(=O)C2=C[C@@H]1O`, the GI50 is 18.7 µM in [1]; 25.9 µM in [2]; 2.94 µM in [3]; 24.2 µM in [4]; 28.5 µM in assay [5]; 2.55 µM in assay [6]. Moreover, the GI50 in assay [7] was 25.9 µM; in assay [8] it was 6.79 µM; in [9] it was 3.95 µM; in [10], 17.5 µM. Further, the TGI was 36.6 µM in assay [1]; 60.5 µM in assay [2]; over 100 µM in assay [3]; over 57 µM in assay [4]; 54 µM in assay [5]; 7.18 µM in assay [6]. In addition, the TGI was over 58.4 µM in assay [7], 21.1 µM in assay [8], over 29.1 µM in [9] and 34.6 µM in assay [10].
For `CC(=O)OC1(C)N=NC2(CCCCC2)O1` (centres undefined), the TGI in assay [1], in [2], in assay [3], in assay [4], in assay [5] and in [6] was over 100 µM throughout. The TGI in [7], in assay [8], in assay [9] and in [10] was over 100 µM throughout.
For `C[C@@H]1CC[C@H]2C(C)(C)[C@H]3C[C@@]12CC[C@@]3(C)O`, the TGI in [1] was over 100 µM; in assay [2], over 100 µM; in assay [3], over 100 µM; in assay [4], over 100 µM; in assay [5] it was over 100 µM; in assay [6] it was 53.6 µM. Moreover, the TGI in [7], in [8], in assay [9] and in assay [10] was over 100 µM each time.
With `CN1CCN(C(=O)COc2ccc(C34CC5CC(CC(C5)C3)C4)cc2)CC1`, the GI50 was 4.87 µM in assay [1]; 21.7 µM in [2]; 5.44 µM in [3]; 13.6 µM in assay [4]; 14.1 µM in [5]; 2.09 µM in assay [6]. Moreover, the GI50 in assay [7] is 14 µM; in assay [8], 11.3 µM; in [9], 15 µM; in assay [10], 11 µM. Also, the TGI in assay [1] stood at 21.6 µM; in assay [2], 84.4 µM; in assay [3], 27.8 µM; in [4], 26.8 µM; in assay [5] it was 29.3 µM; in assay [6] it was 5.73 µM. The TGI is 30.4 µM in assay [7], 23.5 µM in assay [8], 33.4 µM in assay [9] and 23.4 µM in [10].
In the case of `CC(=O)OCc1ccc2c(c1)C(O)NC(=O)O2` (centres undefined), the TGI was over 100 µM in [1]; over 100 µM in assay [2]; 40.4 µM in assay [3]; over 100 µM in assay [4]; over 100 µM in [5]; 73.6 µM in [6]. The TGI in [7], in [8], in assay [9] and in assay [10] was over 100 µM throughout.
As for `O=C1C(Br)=C(Br)C(=O)c2ccc(=O)ccc21`, the TGI is over 100 µM in assay [1]; 53.3 µM in assay [2]; 17 µM in [3]; over 100 µM in assay [4]; over 100 µM in [5]; 43 µM in [6]. The TGI is over 100 µM in assay [7], 32.7 µM in [8], 7.25 µM in assay [9] and 39.4 µM in assay [10].
